Measurements from patent publication US20200237779A1, “COMBINATION THERAPY WITH A BET INHIBITOR AND A BCL-2 INHIBITOR” (Hoffmann-La Roche Inc., priority 2017, published 2020).

System: KMS-12BM MM xenografts
Experiment: In vivo antitumor efficacy against KMS-12BM MM xenografts
Design: species or system CIEA NOG mice
Settings: D14-25; for Antitumor efficacy (result in words): KMS-12BM xenografts, RG6146 30 mg/kg ip, venetoclax 100 mg/kg po, single agent or combination; for Tumor Regression (%) / npTCR and CI (non-parametric Treatment to Control Ratio) / TGI % (tumor growth inhibition): s.c. KMS-12BM human MM xenografts in female CIEA NOG mice, RG6146 30 mg/kg ip QD, venetoclax 100 mg/kg po QD, Day 25; for TGI % (tumor growth inhibition): compared to control
Procedure: The in vivo antitumor efficacy of BET inhibitor RG6146 in combination with Bcl-2 inhibitor venetoclax (GDC-0199) was evaluated against KMS-12BM MM xenografts.
BET inhibitor RG6146 was provided as a powder from Roche, Basel, Switzerland and resuspended prior to use. Bcl-2 inhibitor venetoclax was provided by Genentech, South San Francisco, USA and formulated prior to use.
The original KMS-12BM human Multiple Myeloma cell line (MM) was purchased from ATCC (Manassas, V., USA). Expansion of tumor cells for the transplantation was done by the TAP CompacT CellBase Cell Culture Roboter according to the protocol. Tumor cell line was routinely cultured in RPMI 1640 medium, FCS 10% and L-Glutamin 2 mM at 37° C. in a water-saturated atmosphere at 5% CO2. Culture passage was performed with trypsin/EDTA 1× splitting twice/week and passage 3 used for transplantation.
Female CIEA NOG mice (Taconic), age 5-7 weeks at arrival, maintained under specific-pathogen-free condition with daily cycles of 12 h light/12 h darkness according to committed guidelines. Experimental study protocol was reviewed and approved by local government. After arrival animals were maintained in animal facility for one week to get accustomed to new environment and for observation. Continuous health monitoring was carried out on regular basis. Diet food and autoclaved water were provided ad libitum.
Animals were controlled daily for clinical symptoms and detection of adverse effects. For monitoring throughout the experiment body weight of animals was documented.
Animal treatment started after randomisation when median tumor size was about 170 mm^3. The vehicle was administered ip once daily (QD) on D14-25. BET inhibitor RG6146 ip treatment at 30 mg/kg was done as single agent and in combination on D14-25. Finally, Bcl-2 inhibitor venetoclax was given orally at 100 mg/kg as single agent and in combination on D14-25.
KMS-12BM human MM cells were s.c. inoculated with Matrigel onto female CIEA-NOG mice. Tumor bearing mice were randomized 14 days later to the indicated study groups and compound treatment initiated. Tumor bearing animals were treated with vehicle control, with the BET inhibitor RG6146 at 30 mg/kg or with Bcl-2 inhibitor venetoclax at 100 mg/kg as single agent and in combination thereof.

For `Cc1sc2c(c1C)C(c1ccc(Cl)cc1)=N[C@@H](CC(=O)NCCCN1CCN(C)CC1)c1nnc(C)n1-2` [RG6146, 2-[(S)-4-(4-Chloro-phenyl)-2,3,9-trimethyl-6H-1-thia-5,7,8,9a-tetraaza-cyclopenta[e]azulen-6-yl]-N-[3-(4-methyl-piperazin-1-yl)-propyl]-acetamide], the “Antitumor efficacy (result in words)” value was “nearly tumor stasis”, the “Tumor Regression (%)” value was 0% and the “npTCR and CI (non-parametric Treatment to Control Ratio)” value was 0.06. For the same molecule, the “TGI % (tumor growth inhibition)” value was 94%.
For `CC1(C)CCC(CN2CCN(c3ccc(C(=O)NS(=O)(=O)c4ccc(NCC5CCOCC5)c([N+](=O)[O-])c4)c(Oc4cnc5[nH]ccc5c4)c3)CC2)=C(c2ccc(Cl)cc2)C1` [venetoclax, 4-(4-{[2-(4-chlorophenyl)-4,4-dimethylcyclohex-1-en-1-yl]methyl}piprazin-1-yl)-N-({3-nitro-4-[(tetrahydro-2H-pyran-4-ylmethyl)amino]phenyl}sulfonyl)-2-(1H-pyrrolo[2,3-b]pyridin-5-yloxy)benzamide], the “Antitumor efficacy (result in words)” value was “weaker activity”, the “Tumor Regression (%)” value was 0% and the “npTCR and CI (non-parametric Treatment to Control Ratio)” value was 0.55. The “TGI % (tumor growth inhibition)” value was 49%.
